From PubChem BioAssay (NCI)
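Interpolation was linear, between the two tested concentrations surrounding the appropriate level; five concentrations were tested over 48 hours in 96-well plates. TGI marks complete inhibition of growth.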

Legend:
Assay in all cases: growth of human tumour cells (NCI), 48 h
SK-MEL-28 melanoma = tested on: SK-MEL-28 melanoma
EKVX NSCLC = tested on: EKVX NSCLC
CCRF-CEM leukemia = tested on: CCRF-CEM leukemia
786-0 renal = tested on: 786-0 renal
OVCAR-4 ovarian = tested on: OVCAR-4 ovarian
HCT-15 colon = tested on: HCT-15 colon
MDA-N = tested on: MDA-N
COLO 205 colon = tested on: COLO 205 colon
SK-MEL-2 melanoma = tested on: SK-MEL-2 melanoma
OVCAR-8 ovarian = tested on: OVCAR-8 ovarian
HOP-92 NSCLC = tested on: HOP-92 NSCLC
UACC-257 melanoma = tested on: UACC-257 melanoma
LOX IMVI melanoma = tested on: LOX IMVI melanoma
K-562 leukemia = tested on: K-562 leukemia
NCI-H460 lung = tested on: NCI-H460 lung
HT29 colon = tested on: HT29 colon
HS 578T breast = tested on: HS 578T breast
OVCAR-3 ovarian = tested on: OVCAR-3 ovarian
SK-MEL-5 melanoma = tested on: SK-MEL-5 melanoma
SF-295 CNS = tested on: SF-295 CNS
U251 CNS = tested on: U251 CNS
NCI-H522 lung = tested on: NCI-H522 lung
MDA-MB-435 = tested on: MDA-MB-435
NCI/ADR-RES ovarian = tested on: NCI/ADR-RES ovarian
UACC-62 melanoma = tested on: UACC-62 melanoma
A498 renal = tested on: A498 renal
HCT-116 colon = tested on: HCT-116 colon
RPMI-8226 leukemia = tested on: RPMI-8226 leukemia
HL-60(TB) leukemia = tested on: HL-60(TB) leukemia
MDA-MB-231 breast = tested on: MDA-MB-231 breast
SN12C renal = tested on: SN12C renal
SW-620 colon = tested on: SW-620 colon
NCI-H23 lung = tested on: NCI-H23 lung
CAKI-1 renal = tested on: CAKI-1 renal
KM12 colon = tested on: KM12 colon
IGROV1 ovarian = tested on: IGROV1 ovarian
HOP-62 NSCLC = tested on: HOP-62 NSCLC
T-47D breast = tested on: T-47D breast
NCI-H226 lung = tested on: NCI-H226 lung
A549 NSCLC = tested on: A549 NSCLC
SK-OV-3 ovarian = tested on: SK-OV-3 ovarian
SNB-75 CNS = tested on: SNB-75 CNS
RXF 393 renal = tested on: RXF 393 renal
MCF7 breast = tested on: MCF7 breast
SF-268 CNS = tested on: SF-268 CNS
DU-145 prostate = tested on: DU-145 prostate
SF-539 CNS = tested on: SF-539 CNS
SNB-19 CNS = tested on: SNB-19 CNS
MALME-3M melanoma = tested on: MALME-3M melanoma
PC-3 prostate = tested on: PC-3 prostate
ACHN renal = tested on: ACHN renal
HCC-2998 colon = tested on: HCC-2998 colon
BT-549 breast = tested on: BT-549 breast
M14 melanoma = tested on: M14 melanoma
MOLT-4 leukemia = tested on: MOLT-4 leukemia
TK-10 renal = tested on: TK-10 renal
UO-31 renal = tested on: UO-31 renal
OVCAR-5 ovarian = tested on: OVCAR-5 ovarian
SR leukemia = tested on: SR leukemia

Structure (SMILES): COc1ccc(C(SCCO)(c2ccccc2)c2ccc(OC)cc2)cc1
- TGI (SK-MEL-28 melanoma): 34.1 µM
- TGI (EKVX NSCLC): 29.7 µM
- TGI (CCRF-CEM leukemia): 40.7 µM
- TGI (786-0 renal): 29.1 µM
- TGI (OVCAR-4 ovarian): 49.1 µM
- TGI (HCT-15 colon): 30.3 µM
- TGI (MDA-N): 20.3 µM
- TGI (COLO 205 colon): 36.2 µM
- TGI (SK-MEL-2 melanoma): 25.8 µM
- TGI (OVCAR-8 ovarian): 43 µM
- TGI (HOP-92 NSCLC): 29.1 µM
- TGI (UACC-257 melanoma): 30.5 µM
- TGI (LOX IMVI melanoma): 33.8 µM
- TGI (K-562 leukemia): > 72.9 µM
- TGI (NCI-H460 lung): 17.2 µM
- TGI (HT29 colon): 29.1 µM
- TGI (HS 578T breast): > 44.1 µM
- TGI (OVCAR-3 ovarian): 33.9 µM
- TGI (SK-MEL-5 melanoma): 21.1 µM
- TGI (SF-295 CNS): 19 µM
- TGI (U251 CNS): 14.8 µM
- TGI (NCI-H522 lung): 24.9 µM
- TGI (MDA-MB-435): 20.5 µM
- TGI (NCI/ADR-RES ovarian): 34.7 µM
- TGI (UACC-62 melanoma): 24.8 µM
- TGI (A498 renal): 27.1 µM
- TGI (HCT-116 colon): 22.2 µM
- TGI (RPMI-8226 leukemia): 69.1 µM
- TGI (HL-60(TB) leukemia): 47.2 µM
- TGI (MDA-MB-231 breast): 25.4 µM
- TGI (SN12C renal): 30.5 µM
- TGI (SW-620 colon): 35.6 µM
- TGI (NCI-H23 lung): 38.1 µM
- TGI (CAKI-1 renal): 40.6 µM
- TGI (KM12 colon): 21.5 µM
- TGI (IGROV1 ovarian): 46.2 µM
- TGI (HOP-62 NSCLC): 42 µM
- TGI (T-47D breast): 34.1 µM
- TGI (NCI-H226 lung): 28.6 µM
- TGI (A549 NSCLC): 27.3 µM
- TGI (SK-OV-3 ovarian): 35.4 µM
- TGI (SNB-75 CNS): 16.8 µM
- TGI (RXF 393 renal): 17.7 µM
- TGI (MCF7 breast): 18.5 µM
- TGI (SF-268 CNS): 26.8 µM
- TGI (DU-145 prostate): 30.6 µM
- TGI (SF-539 CNS): 31.2 µM
- TGI (SNB-19 CNS): 22.8 µM
- TGI (MALME-3M melanoma): 31.4 µM
- TGI (PC-3 prostate): 28.9 µM
- TGI (ACHN renal): 29.6 µM
- TGI (HCC-2998 colon): 15.2 µM
- TGI (BT-549 breast): 36.8 µM
- TGI (M14 melanoma): 23.1 µM
- TGI (MOLT-4 leukemia): 50.2 µM
- TGI (TK-10 renal): 33.5 µM
- TGI (UO-31 renal): 31.7 µM
- TGI (OVCAR-5 ovarian): 31.6 µM

Structure (SMILES): Cc1ccc(Nc2nc(NNC(=O)Cc3ccccc3)nc(NNC(=O)c3ccncc3)n2)cc1
- TGI (SK-MEL-28 melanoma): > 10 µM
- TGI (EKVX NSCLC): > 10 µM
- TGI (CCRF-CEM leukemia): > 10 µM
- TGI (786-0 renal): > 10 µM
- TGI (OVCAR-4 ovarian): > 10 µM
- TGI (HCT-15 colon): > 10 µM
- TGI (MDA-N): > 10 µM
- TGI (COLO 205 colon): > 10 µM
- TGI (OVCAR-8 ovarian): > 10 µM
- TGI (HOP-92 NSCLC): > 10 µM
- TGI (UACC-257 melanoma): > 10 µM
- TGI (LOX IMVI melanoma): > 10 µM
- TGI (K-562 leukemia): > 10 µM
- TGI (NCI-H460 lung): > 10 µM
- TGI (HT29 colon): > 10 µM
- TGI (HS 578T breast): > 10 µM
- TGI (SK-MEL-5 melanoma): > 10 µM
- TGI (U251 CNS): > 10 µM
- TGI (NCI/ADR-RES ovarian): > 10 µM
- TGI (UACC-62 melanoma): > 10 µM
- TGI (A498 renal): > 10 µM
- TGI (SR leukemia): > 10 µM
- TGI (RPMI-8226 leukemia): > 10 µM
- TGI (HL-60(TB) leukemia): > 10 µM
- TGI (MDA-MB-231 breast): > 10 µM
- TGI (SN12C renal): > 10 µM
- TGI (SW-620 colon): > 10 µM
- TGI (NCI-H23 lung): > 10 µM
- TGI (CAKI-1 renal): > 10 µM
- TGI (KM12 colon): > 10 µM
- TGI (IGROV1 ovarian): > 10 µM
- TGI (HOP-62 NSCLC): > 10 µM
- TGI (T-47D breast): > 10 µM
- TGI (A549 NSCLC): > 10 µM
- TGI (SK-OV-3 ovarian): > 10 µM
- TGI (SNB-75 CNS): > 10 µM
- TGI (MCF7 breast): > 10 µM
- TGI (SF-268 CNS): > 10 µM
- TGI (DU-145 prostate): > 10 µM
- TGI (SF-539 CNS): > 10 µM
- TGI (MALME-3M melanoma): > 10 µM
- TGI (HCC-2998 colon): > 10 µM
- TGI (BT-549 breast): > 10 µM
- TGI (M14 melanoma): > 10 µM
- TGI (MOLT-4 leukemia): > 10 µM
- TGI (TK-10 renal): > 10 µM
- TGI (UO-31 renal): > 10 µM
